Read-outs that look alike come from different tables or passages of the source.

The values that follow come from US20260365621A1, “Non-Hallucinogenic Tryptamine Compounds” (priority 2022, published 2026).

Assay [1] relates to head twitch response in C57BL/6J male mice. Type of assay: in vivo. The protocol: The study of example 2 was performed using C57BL/6J male mice (25-30 g; Envigo, Milan, Italy). The animals were divided into groups of 10 animals each: (a) control, (b) vehicle, and (c) combinations of psilocyn (1 mg/kg) and pinoline (3 or 10 mg/kg). The treated mice were left to fast in the 12 hours prior to administration. Psilocyn and pinoline were resuspended in a solution of EtOH 20%. Mice were subjected to a singular oral administration of compounds. The vehicle group was given the EtOH 20% solution.
After administration, the animals were placed individually in transparent plexiglass cages. […] (See Halberstadt, Adam L., et al. “Differential contributions of serotonin receptors to the behavioral effects of indoleamine hallucinogens in mice.” Journal of psychopharmacology 25.11 (2011): 1548-1561.) (Sun, Yina, et al. “Effects of low-doses of methamphetamine on d-fenfluramine-induced head-twitch response (HTR) in mice during ageing and c-fos expression in the prefrontal cortex.” BMC neuroscience 24.1 (2023): 1-17.).

Assay [2] relates to CAR-induced paw edema. The experiment in a line: Carrageenan (CAR)-induced rat paw edema (plethysmometer). The following applies: Psilocin alone at 3 and 10 mg/Kg.
Method: A study was performed using male Sprague-Dawley rats (200-250 g; Envigo, Milan, Italy). Food and water were accessible ad libitum. Rats were concurrently subjected to a singular subplantar injection of CAR (100 μL of saline solution containing 1% CAR). […] Edema was expressed as the increase in paw volume (mL) after CAR injection relative to the pre-injection value for all animals. Scores were expressed as paw volume difference (mL).
The test system of assay [3] is mechanical allodynia / paw-withdrawal threshold after CAR injection. The experiment in a line: Mechanical allodynia, Von Frey hair test after CAR injection. The following applies: Psilocin alone at 3 and 10 mg/Kg.
Method: A study was performed using male Sprague-Dawley rats (200-250 g; Envigo, Milan, Italy). Food and water were accessible ad libitum. Rats were concurrently subjected to a singular subplantar injection of CAR (100 μL of saline solution containing 1% CAR).
Mechanical allodynia was evaluated using a dynamic plantar Von Frey hair aesthesiometer on time 0 and 1, 2, 3, 4, 5, and 6 days post-injection (Bio-EVF4; Bioseb, Vitrolles, France) as previously described (D'Amico, R.; Fusco, R.; Siracusa, R.; Impellizzeri, D.; Peritore, A. F.; Gugliandolo, E.; Interdonato, L.; Sforza, A. M.; Crupi, R.; Cuzzocrea, S.; et al. Inhibition of P2X7 Purinergic Receptor Ameliorates Fibromyalgia Syndrome by Suppressing NLRP3 Pathway. Int. J. Mol. Sci. 2021, 22, 6471. https://doi.org/10.3390/ijms22126471). The device encloses a force transducer furnished with a plastic tip. When pressure is applied to the tip, the force applied is recorded. The tip was applied to the plantar area of the hind leg, and a rising upward force was exerted until the paw was withdrawn. The withdrawal threshold was defined as the force, expressed in grams, at which the mouse removed the paw.
To investigate whether Psilocin+Pinoline were able to reduce pain associated with CAR injection, a Von Frey test was performed.
Assay [4] deals with 5-HT2A. The following applies: Central Nervous System (CNS); cited from earlier work.
For assay [5], the system named is 5-HT2A. The following applies: Central Nervous System (CNS); cited from earlier work. This is another data set of the same source.

`COc1ccc2[nH]c3c(c2c1)CCNC3` [Pinoline, pinoline]: the “effect of pinoline on psilocin activity (head twitch)” value in assay [1] (pinoline 3 mg/kg with psilocin 1 mg/kg) and in assay [1] (pinoline 10 mg/kg with psilocin 1 mg/kg) was “prolonged the psilocin (1 mg/kg) activity” in each case.
`CN(C)CCc1c[nH]c2cccc(O)c12` [Psilocin, 4-hydroxy-N,N-dimethyltryptamine]: the anti-inflammatory effects entry in assay [2] was “anti-inflammatory and analgesic effects”. Moreover, in assay [3], the analgesic effects result was “anti-inflammatory and analgesic effects”. In addition, the “binding to 5-HT2A receptor” value in assay [4] is listed as “known to bind”. In assay [5], the “activities caused by 5-HT2A binding in the CNS” value is “hallucinogenic, anxiolytic, and psychoactive activities”. Besides, in assay [1] (10 mg/kg alone, after 11-20 minutes from administration), the “effect in head twitch test, 11-20 minutes” value is given as “finished”. In assay [1] (10 mg/kg, after 10 minutes from treatment), the “number of head movements” value is recorded as “important number of head movements”.
`CN(C)CCc1c[nH]c2cccc(OP(=O)(O)O)c12` [Psilocybin, 4-phosphoryloxy-N,N-dimethyltryptamine]: in assay [4], the “binding to 5-HT2A receptor” value was “known to bind”. The “activities caused by 5-HT2A binding in the CNS” value in assay [5] is “hallucinogenic, anxiolytic, and psychoactive activities”.
